Key:
Format in all cases: functional
EKVX [1] = assay: Growth inhibition of human EKVX cells assessed as cell growth at 10 uM after 48 hrs by SRB assay; conditions: read-out: Activity
NCI-H460 [2] = assay: Growth inhibition of human NCI-H460 cells assessed as cell growth at 10 uM after 48 hrs by SRB assay; conditions: NCI-H460, 48 h, read-out: Activity
COLO 205 = assay: Growth inhibition of human COLO205 cells assessed as cell growth at 10 uM after 48 hrs by SRB assay; conditions: COLO 205, 48 h, read-out: Activity
SF-539 = assay: Growth inhibition of human SF539 cells assessed as cell growth at 10 uM after 48 hrs by SRB assay; conditions: SF-539, 48 h, read-out: Activity
IGROV-1 [3] = assay: Growth inhibition of human IGROV1 cells assessed as cell growth at 10 uM after 48 hrs by SRB assay; conditions: IGROV-1, 48 h, read-out: Activity
OVCAR-4 [4] = assay: Growth inhibition of human OVCAR4 cells assessed as cell growth at 10 uM after 48 hrs by SRB assay; conditions: OVCAR-4, 48 h, read-out: Activity
ACHN = assay: Growth inhibition of human ACHN cells assessed as cell growth at 10 uM after 48 hrs by SRB assay; conditions: read-out: Activity
CAKI-1 = assay: Growth inhibition of human Caki1 cells assessed as cell growth at 10 uM after 48 hrs by SRB assay; conditions: CAKI-1, 48 h, read-out: Activity
UO-31 [5] = assay: Growth inhibition of human UO31 cells assessed as cell growth at 10 uM after 48 hrs by SRB assay; conditions: UO-31, 48 h, read-out: Activity
DU-145 [6] = assay: Growth inhibition of human DU145 cells assessed as cell growth at 10 uM after 48 hrs by SRB assay; conditions: DU-145, 48 h, read-out: Activity
MCF7 [7] = assay: Growth inhibition of human MCF7 cells assessed as cell growth at 10 uM after 48 hrs by SRB assay; conditions: MCF7, 48 h, read-out: Activity
MDA-MB-231 [8] = assay: Growth inhibition of human MDA-MB-231 cells assessed as cell growth at 10 uM after 48 hrs by SRB assay; conditions: MDA-MB-231, 48 h, read-out: Activity
HCC 2998 [9] = assay: Growth inhibition of human HCC2998 cells after 48 hrs by […] growth inhibition assay; conditions: HCC 2998, 48 h
HCT-15 = assay: Growth inhibition of human HCT15 cells after 48 hrs by […] growth inhibition assay; conditions: HCT-15, 48 h
786-0 = assay: Growth inhibition of human 786-0 cells after 48 hrs by […] growth inhibition assay; conditions: 786-0, 48 h
UO-31 [10] = assay: Growth inhibition of human UO31 cells after 48 hrs by […] growth inhibition assay; conditions: UO-31, 48 h
T47D = assay: Growth inhibition of human T47D cells after 48 hrs by […] growth inhibition assay
A549 [11] = assay: Growth inhibition of human A549 cells assessed as cell growth at 0.1 uM after 48 hrs by SRB assay; conditions: A549, 48 h, read-out: Activity
HOP-62 = assay: Growth inhibition of human HOP62 cells assessed as cell growth at 0.1 uM after 48 hrs by SRB assay; conditions: HOP-62, 48 h, read-out: Activity
NCI-H322M = assay: Growth inhibition of human NCI-H322M cells assessed as cell growth at 0.1 uM after 48 hrs by SRB assay; conditions: read-out: Activity
HCC 2998 [12] = assay: Growth inhibition of human HCC2998 cells assessed as cell growth at 0.1 uM after 48 hrs by SRB assay; conditions: HCC 2998, 48 h, read-out: Activity
IGROV-1 [13] = assay: Growth inhibition of human IGROV1 cells assessed as cell growth at 0.1 uM after 48 hrs by SRB assay; conditions: IGROV-1, 48 h, read-out: Activity
MCF7 [14] = assay: Growth inhibition of human MCF7 cells assessed as cell growth at 0.1 uM after 48 hrs by SRB assay; conditions: MCF7, 48 h, read-out: Activity
MDA-MB-231 [15] = assay: Growth inhibition of human MDA-MB-231 cells assessed as cell growth at 0.1 uM after 48 hrs by SRB assay; conditions: MDA-MB-231, 48 h, read-out: Activity
CCRF-CEM = assay: Growth inhibition of human CCRF-CEM cells assessed as cell growth at 100 uM after 48 hrs by SRB assay; conditions: read-out: Activity
OVCAR-3 = assay: Growth inhibition of human OVCAR3 cells assessed as cell growth at 100 uM after 48 hrs by SRB assay; conditions: OVCAR-3, 48 h, read-out: Activity
A498 = assay: Growth inhibition of human A498 cells assessed as cell growth at 100 uM after 48 hrs by SRB assay; conditions: A498, 48 h, read-out: Activity
DU-145 [16] = assay: Growth inhibition of human DU145 cells assessed as cell growth at 100 uM after 48 hrs by SRB assay; conditions: DU-145, 48 h, read-out: Activity
MCF7 [17] = assay: Growth inhibition of human MCF7 cells assessed as cell growth at 100 uM after 48 hrs by SRB assay; conditions: MCF7, 48 h, read-out: Activity
A549 [18] = assay: Growth inhibition of human A549 cells assessed as cell growth at 1 mM after 48 hrs by SRB assay; conditions: A549, 48 h, read-out: Activity
EKVX [19] = assay: Growth inhibition of human EKVX cells assessed as cell growth at 1 mM after 48 hrs by SRB assay; conditions: read-out: Activity
SK-OV-3 = assay: Growth inhibition of human SKOV3 cells assessed as cell growth at 1 mM after 48 hrs by SRB assay; conditions: SK-OV-3, 48 h, read-out: Activity
MDA-MB-231 [20] = assay: Growth inhibition of human MDA-MB-231 cells assessed as cell growth at 1 mM after 48 hrs by SRB assay; conditions: MDA-MB-231, 48 h, read-out: Activity
NCI-H460 [21] = assay: Growth inhibition of human NCI-H460 cells assessed as cell growth at 1 uM after 48 hrs by SRB assay; conditions: NCI-H460, 48 h, read-out: Activity
NCI-H522 = assay: Growth inhibition of human NCI-H522 cells assessed as cell growth at 1 uM after 48 hrs by SRB assay; conditions: NCI-H522, 48 h, read-out: Activity
OVCAR-4 [22] = assay: Growth inhibition of human OVCAR4 cells assessed as cell growth at 1 uM after 48 hrs by SRB assay; conditions: OVCAR-4, 48 h, read-out: Activity
[23] = read-out: LC50 (the source's name)
[24] = read-out: pLC50 (the source's name) (converted)

In the case of `CNC(=O)OC[C@H]1O[C@@H](n2cnc3c(NC(=O)Nc4ccccc4)ncnc32)[C@H](O[Si](C)(C)C(C)(C)C)[C@@H]1O[Si](C)(C)C(C)(C)C`, the growth at 10 µM (EKVX [1]) is reported as 104%, the growth at 10 µM (NCI-H460 [2]) is reported as 103% and the growth at 10 µM (COLO 205) is reported as 106%. It also gave a growth at 10 µM (SF-539) of 97.1%, a growth at 10 µM (IGROV-1 [3]) of 111% and a growth at 10 µM (OVCAR-4 [4]) of 85.8%. It also gave a growth at 10 µM (ACHN) of 94.6%, a growth at 10 µM (CAKI-1) of 106% and a growth at 10 µM (UO-31 [5]) of 106%. For the same compound, the growth at 10 µM (DU-145 [6]) was 106%, the growth at 10 µM (MCF7 [7]) was 87.8% and the growth at 10 µM (MDA-MB-231 [8]) was 110%.
Compound `CCOC(=O)C[C@H]1[C@@H](O[Si](C)(C)C(C)(C)C)[C@H](n2cnc3c(NC(=O)Nc4ccccc4)ncnc32)O[C@@H]1CNC(=O)NC` has a growth at 10 µM (EKVX [1]) of 91%, a growth at 10 µM (NCI-H460 [2]) of 101% and a growth at 10 µM (COLO 205) of 93%. The growth at 10 µM (SF-539) was 103%, the GI50 (HCC 2998 [9]; read-out: GI50) was over 100 µM and the CC50 (HCC 2998 [9]; [23]) was over 100 µM. For the same compound, the TGI (HCC 2998 [9]; read-out: TGI) was over 100 µM, the GI50 (HCC 2998 [9]; read-out: pGI50 (converted)) was over 100 µM and the CC50 (HCC 2998 [9]; [24]) was over 100 µM. For the same compound, the TGI (HCC 2998 [9]; read-out: pTGI (converted)) was over 100 µM, the GI50 (HCT-15; read-out: GI50) was 8.5 µM and the CC50 (HCT-15; [23]) was over 100 µM. It also gave a TGI (HCT-15; read-out: TGI) of over 100 µM, a GI50 (HCT-15; read-out: pGI50 (converted)) of 8.51 µM and a CC50 (HCT-15; [24]) of over 100 µM. The TGI (HCT-15; read-out: pTGI) was over 100 µM, the GI50 (786-0; read-out: GI50) was 2000 nM and the CC50 (786-0; [23]) was 17.9 µM. It also gave a TGI (786-0; read-out: TGI) of 5.21 µM, a GI50 (786-0; read-out: pGI50 (converted)) of 2000 nM and a CC50 (786-0; [24]) of 17.8 µM. The TGI (786-0; read-out: pTGI (converted)) was 5.25 µM, the GI50 (UO-31 [10]; read-out: GI50) was 12.1 µM and the CC50 (UO-31 [10]; [23]) was 71.7 µM. For the same compound, the TGI (UO-31 [10]; read-out: TGI) was 29.5 µM, the GI50 (UO-31 [10]; read-out: pGI50 (converted)) was 12 µM and the CC50 (UO-31 [10]; [24]) was 72.4 µM. The TGI (UO-31 [10]; read-out: pTGI (converted)) was 29.5 µM, the GI50 (T47D; read-out: GI50) was 2550 nM and the CC50 (T47D; [23]) was over 100 µM. For the same compound, the TGI (T47D; read-out: TGI) was over 100 µM, the GI50 (T47D; read-out: pGI50 (converted)) was 2570 nM and the CC50 (T47D; [24]) was over 100 µM. It also gave a TGI (T47D; read-out: pTGI (converted)) of over 100 µM, a growth at 0.1 µM (A549 [11]) of 102% and a growth at 0.1 µM (HOP-62) of 99%. It also gave a growth at 0.1 µM (NCI-H322M) of 105%, a growth at 0.1 µM (HCC 2998 [12]) of 101% and a growth at 0.1 µM (IGROV-1 [13]) of 94%. It also gave a growth at 0.1 µM (MCF7 [14]) of 96%, a growth at 0.1 µM (MDA-MB-231 [15]) of 101% and a growth at 10 µM (IGROV-1 [3]) of 93%. For the same compound, the growth at 10 µM (OVCAR-4 [4]) was 95%, the growth at 10 µM (ACHN) was 96% and the growth at 10 µM (CAKI-1) was 99%. It also gave a growth at 10 µM (UO-31 [5]) of 82%, a growth at 10 µM (DU-145 [6]) of 110% and a growth at 10 µM (MCF7 [7]) of 89%. The growth at 10 µM (MDA-MB-231 [8]) was 94%, the growth at 100 µM (CCRF-CEM) was 41% and the growth at 100 µM (OVCAR-3) was 16%. The growth at 100 µM (A498) was 13%, the growth at 100 µM (DU-145 [16]) was 24% and the growth at 100 µM (MCF7 [17]) was 16%. For the same compound, the growth at 1000 µM (A549 [18]) was -58%, the growth at 1000 µM (EKVX [19]) was 42% and the growth at 1000 µM (SK-OV-3) was 16%. For the same compound, the growth at 1000 µM (MDA-MB-231 [20]) was -13%, the growth at 1 µM (NCI-H460 [21]) was 102% and the growth at 1 µM (NCI-H522) was 85%. The growth at 1 µM (OVCAR-4 [22]) was 103%.

Reference: ChEMBL document CHEMBL1681651, “A broad spectrum anticancer nucleoside with selective toxicity against human colon cells in vitro” (2011)
